Assay results as given in patent US10624965B2, “Immunotherapy treatments and compositions” (SUSAVION BIOSCIENCES, INC., priority 2014, dated 2020).
Positions of bridges follow the written chain, without caps; N, C: chain ends. Chains are numbered I, II in the order given. No end group written: not given here.

Legend:
[1] = tested on: serum cytokines and chemokines; details: mouse, in vivo
Method: To determine whether the responses in serum proteins would be different in tumor-bearing mice from those in healthy mice, sera were collected from female mice in which breast cancer 4T1 cells had been implanted. After the tumors had grown over a period of 10 to 12 days to a size of ˜500 mm^3, tetravalent svL4 was injected subcutaneously at doses of 0.1 and 1.0 nmol/g. Blood was withdrawn and sera prepared 4 hours after injection. The sera of untreated animals had low levels of cytokines and chemokines at 4 h. With a few proteins, such as IL-1β, IL-2, IL-6 and TNFα, the values were very low in untreated animals and upon treatment with svL4 were increased but still nearly undetectable on the array blots. […] Several cytokines that increased but were still low in amount included GM-CSF, CCL4, IGFBP-1, IL-21, lymphotoxin-α, and IL-17. Major proteins included CCL1, CCL8, CCL28, Endostatin, Fas, HVEM, IL-11, IL-12p70, IL-16, IL-27, IL-28, MIP-2, MMP-9, NOV, Soggy-1, SPARC, TIMP-2, TLR2 and VEGF-B. In some cases, the higher dose caused a higher amount of the protein, whereas with several proteins the amount was lower with the higher dose. […] A number of soluble proteins were identified as cell-surface receptors, such as Fas, HVEM and TLR2, which indicated significant shedding by activated cells. […]

[2] = in vivo
From the text: (§1) It is important to note that during and after drug administration there was no change in mouse weight or behavior, indicating no overt toxicity related to treatment.

[3] = set-up: species or system mice
From the text: as §1

Question: Which “pattern typical of a toxic "cytokine storm"” value [1] does the source give for “I: VQATQSNQHTPRGGGSKK-NH2 / II: VQATQSNQHTPRGGGSK / III: VQATQSNQHTPRGGGS / IV: VQATQSNQHTPRGGGS (amide I:17-IV:C, I:18-II:C, II:17-III:C) [svL4, [(VQATQSNQHTPRGGGS)2K]2K—NH2]” here?
Answer: Its value is “did not occur”.

Question: And the “change in mouse weight or behavior (overt toxicity)” value [2]?
Answer: The value was “no change”.

Question: And the “irritation or formation of fibrous or granulomatous tissue at injection region” value ([2]; mouse)?
Answer: The value was “no apparent irritation”.

Question: And the “binding of peptides to sera (antigenicity)” value [3]?
Answer: Its value is “negative”.
